According to US20130039904A1, “GAMBOGIC ACID CYCLIZATION ANALOGUES, THEIR PREPARATION METHOD AND APPLICATION THEREOF” (Liaoning Lifeng Scientific & Technology Development Company …, priority 2009, published 2013):
pIC50: −log10 of the molar value. ≈ marks a conversion by molar mass, not a printed value. Where two headings read alike, the source gives them in different places.

Assays:
[1] = Body weight of S180 sarcoma-bearing mice; conditions: iv
Protocol: (§1) Test animals: Kunming kinds of healthy mice (19-21 g), 10 mice (5 male and 5 female)/group, from Beijing Institute of Military Medical Sciences Animal Center.
(§2) Xenografts cultured S180 tumor cells were implanted subcutaneously into the flank region of mice and tumors were allowed to grow to the desired average size of 100 mg. The mice were randomized into control and treatment groups with 10 mice per group. The control group was injected with the vehicle used to dissolve the drug. Other groups received the test compounds (example compound 5, 9, 10, 11, 13, 18, 19, 22, 24, 35, 306 and positive group, cyclophosphamide (CTX) and 5-fluorouracil (5-FU)) at the dose and schedule as indicated in Table VI. Injections were I.V. via the tail vein.

mice sarcoma S180 = experiment: Growth inhibition of S180 sarcoma in mice; format: in vivo, Kunming mice; parameters: Inhibition rate (%): concentration or dose not given beside the values; conditions: for Tumor weight / Inhibition rate (%): S180 sarcoma, Kunming mice, iv; for Inhibition rate (%): *P<0.01, **p<0.001 vs control; for anti-tumor efficacy, statistical significance: S180 sarcoma in mice, in words
Protocol: as §1
Tumor strains: mice sarcoma S180 for ascites passaged from Beijing Academy of Military Medical Institute of Pharmacology.
as §2

[2] = tested on: human colorectal cancer cell line HT29; experiment: In vitro anti-cancer cell experiment (MTT), HT29; format: cell-based; conditions: for IC50: Homo sapiens, HT-29; for anti-proliferative effect on HT29: HT29, in words
Protocol: (§3) a. Cell lines: Human pancreatic cancer cell line Panc-1, human colorectal cancer cell line HT29 and human lung cancer cell line NCI—H460; the medium: s DMEM (Gibco BRL), containing 10% fetal calf serum (Gibco BRL) and 2 mM L-glutamine (Gibco BRL).
(§4) b. Test samples: example compounds 5, 9, 10, 22 and 24. The samples were dissolved in dimethyl sulfoxide (DMSO, Sigma, United States) and medium was added to the final concentration of 0.5%. Cisplatin was as positive control of (CDDP, purity 96%, from Kunming Institute of Precious Metals).
(§5) c. Method: cells were digested with trypsin and dispersed into single cells in the medium containing penicillin (25 U/ml) and streptomycin (25 μg/ml). The cells were seeded in 96-well culture plates (Corning Incorporated), at 37° C., in a humidified atmosphere with 5% CO2 present for 24 hours. The culture medium was removed, […] test compounds were added, cultured for 48 hours. Culture medium was removed and […] (MTT, USA Sigma products) was added. The result was assayed by SK601-based microplate reader (Japan Seikagaku company's products), 570 nm/630 nm optical density (OD).
(§6) Calculation of cell viability: (Experimental group OD/control OD)×100%; Positive control CDDP was treated in the same way.

[3] = tested on: human lung cancer cell line NCI-H460; experiment: In vitro anti-cancer cell experiment (MTT), NCI-H460; format: cell-based; conditions: for pIC50: NCI-H460 cells, 48 hours, MTT, read-out: IC50 NCI-H460; for IC50: NCI-H460, text value, P<0.05, read-out: IC50 (anti-proliferative effect on NCI-H460)
Protocol: as §3, §4, §5, §6

[4] = tested on: Human pancreatic cancer cell line Panc-1; experiment: In vitro anti-cancer cell experiment (MTT), Panc-1; format: cell-based; conditions: for anti-proliferative effect on Panc-1: Panc-1, in words
Protocol: as §3, §4, §5, §6

[5] = HT29 cells, 48 hours, MTT, read-out: IC50 HT29
[6] = HT29, text value, P<0.05, read-out: IC50 (anti-proliferative effect on HT29)

IC50 [2, 5] | pIC50 [3] | IC50 [2, 6] | IC50 [3] | IC50 ([4]; Homo sapiens, Panc-1, text value, P<0.05, read-out: IC50 (anti-proliferative effect on Panc-1)) | SMILES | body Weight (g) After ad. ([1]; after administration, S180 mice) | body Weight (g) Before ad. ([1]; before administration, S180 mice) | Tumor weight (mice sarcoma S180) | Inhibition rate (%) (mice sarcoma S180) | body Weight (g) After ad. ([1]; mouse, in vivo) | body Weight (g) Before ad. ([1]; mouse, in vivo) | anti-proliferative effect on Panc-1 [4] | anti-proliferative effect on HT29 [2] | anti-tumor efficacy, statistical significance (mice sarcoma S180)
 |  |  |  |  | O=P1(N(CCCl)CCCl)NCCCO1 (stereo not shown) [CTX, cyclophosphamide, reference compound] | 26.32 ± 3.58 g | 21.48 ± 1.60 g | 1.02 ± 0.88 g | 46.5* % |  |  |  |  | 
14.4 µg/mL (≈ 110 µM) |  |  |  |  | O=c1[nH]cc(F)c(=O)[nH]1 [Compound 5-FU, 5-fluorouracil, reference compound] |  |  | 1.18 ± 0.49 g | 42.8* % | 28.55 ± 2.38 g | 22.59 ± 1.46 g |  |  | 
35.6 µg/mL (≈ 36.9 µM) | 8.11 |  |  |  | COC(=O)/C(C)=C\CC12OC(C)(C)[C@H]3C[C@@H](C=C4C(=O)c5c(OC(=O)c6ccc(O[C@@H]7O[C@@H]8COC(C)(C)O[C@H]8[C@H](O)[C@H]7O)cc6)c6c(c(CC=C(C)C)c5OC431)OC(C)(CCC=C(C)C)C=C6)C2=O (stereo partly shown) [Compound 5] |  |  | 1.08 ± 0.63 g | 45** % | 27.39 ± 2.91 g | 21.53 ± 1.77 g |  |  | 
1.03 µg/mL (≈ 1.46 µM) | 8.47 | 1.03 µg/mL (≈ 1.46 µM) | 6.18 µg/mL |  | COC(=O)/C(C)=C\CC12OC(C)(C)C3CC(C1=O)C1C4=C(Nc5nccn51)c1c(O)c5c(c(CC=C(C)C)c1OC432)OC(C)(CCC=C(C)C)C=C5 (stereo not shown) [Compound 9] |  |  | 0.56 ± 0.13 g | 70.21** % | 23.58 ± 1.86 g | 20.53 ± 1.16 g | showed anti-proliferative effect | showed anti-proliferative effect | statistically significant
38.3 µg/mL (≈ 50.6 µM) | 7.76 |  |  |  | COC(=O)/C(C)=C\CC12OC(C)(C)C3CC(C1=O)C1C4=C(Nc5nc6ccccc6n51)c1c(O)c5c(c(CC=C(C)C)c1OC432)OC(C)(CCC=C(C)C)C=C5 (stereo not shown) [Compound 10] |  |  | 1.24 ± 0.73 g | 39.36* % | 25.12 ± 4.64 g | 20.32 ± 1.22 g | showed anti-proliferative effect | showed anti-proliferative effect | 
 |  |  |  |  | COC(=O)/C(C)=C\CC12OC(C)(C)C3CC(C=C4C(=O)c5c(OC(=O)CCC(=O)N6CCN(C)CC6)c6c(c(CC=C(C)C)c5OC431)OC(C)(CCC=C(C)C)C=C6)C2=O (stereo not shown) [Compound 11] |  |  | 1.35 ± 0.59 g | 31.01* % | 26.30 ± 3.62 g | 19.92 ± 1.47 g |  |  | 
 |  |  |  |  | COC(=O)/C(C)=C\CC12OC(C)(C)C3CC(C1=O)C(N1CCOCC1)C1C(=O)c4c(OC(=O)CCl)c5c(c(CC=C(C)C)c4OC132)OC(C)(CCC=C(C)C)C=C5 (stereo not shown) [Compound 13] |  |  | 1.06 ± 0.70 g | 45** % | 27.59 ± 2.52 g | 21.76 ± 1.93 g |  |  | 
 |  |  |  |  | COC(=O)/C(C)=C\CC12OC(C)(C)C3CC(C1=O)C1C4=C(Nc5ncnn51)c1c(O)c5c(c(CC=C(C)C)c1OC432)OC(C)(CCC=C(C)C)C=C5 (stereo not shown) [Compound 18] |  |  | 1.42 ± 0.52 g | 25.26% | 27.37 ± 3.92 g | 20.16 ± 0.90 g |  |  | 
3.62 µg/mL (≈ 4.45 µM) | 8.31 | 3.62 µg/mL (≈ 4.45 µM) | 4.73 µg/mL | 3.26 µg/mL (≈ 4.01 µM) | COC(=O)/C(C)=C\CC12OC(C)(C)C3CC(C1=O)C1C4=C(c5ccccc5C4=O)N(CCN)C4=C1C32Oc1c(CC=C(C)C)c2c(c(O)c14)C=CC(C)(CCC=C(C)C)O2 (stereo not shown) [Compound 22] |  |  | 0.88 ± 0.37 g | 53.19** % | 25.77 ± 2.33 g | 19.34 ± 0.81 g | showed anti-proliferative effect | showed anti-proliferative effect | statistically significant
54.1 µg/mL (≈ 62.2 µM) | 7.86 |  |  |  | COC(=O)/C(C)=C\CC12OC(C)(C)C3CC(C1=O)C1C4=C(Nc5nccn51)c1c(O[C@H]5O[C@@H](CO)[C@H](O)[C@@H](O)[C@@H]5O)c5c(c(CC=C(C)C)c1OC432)OC(C)(CCC=C(C)C)C=C5 (stereo partly shown) [Compound 24] |  |  | 0.65 ± 0.37 g | 62.87** % | 27.61 ± 2.89 g | 20.71 ± 1.75 g | showed anti-proliferative effect | showed anti-proliferative effect | statistically significant
 |  |  |  |  | COC(=O)/C(C)=C\CC12OC(C)(C)C3CC(C1=O)C1C4=C(Nc5nccn51)c1c(OCCNCCO)c5c(c(CC=C(C)C)c1OC432)OC(C)(CCC=C(C)C)C=C5 (stereo not shown) [Compound 35] |  |  | 0.78 ± 0.33 g | 59.25** % | 26.86 ± 1.81 g | 20.08 ± 1.92 g |  |  | statistically significant
 |  |  |  |  | COC(=O)/C(C)=C\CC12OC(C)(C)C3CC(C1=O)C1C4=C(c5ccccc5C4=O)N4CCNC45c4c(O)c6c(c(CC=C(C)C)c4OC32C15)OC(C)(CCC=C(C)C)C=C6 (stereo not shown) [Compound 306] |  |  | 1.29 ± 0.49 g | 36.77* % | 26.98 ± 3.02 g | 20.75 ± 1.33 g |  |  | 
